Data published in patent publication US8063095B2, “IAP BIR domain binding compounds” (Pharmascience Inc., priority 2005, dated 2011).

What was measured:
[1] = molecular target: T1, cIAP-2 bir3 domain (GST-HIAP1(cIAP-2) BIR3) (Homo sapiens, UniProt Q13489); assay: Fluorescence polarization-based competition assay, cIAP-2; assay type: binding; conditions: Ki calculated from displacement of fluorescent probe; read-out: Fluorescent polarization (FP) assay cIAP-2
T1 construct: made in house; host or cells: E. coli DH5-alpha
Experimental: GST-HIAP1(cIAP-2) BIR3: HIAP1 coding sequence from amino acids 236-349, cloned into PGex4T3 via BamH1 and XhoI. The plasmid was transformed into E. coli DH5α for use in protein expression and purification.
(§1) A fluorescent peptide probe, Fmoc-Ala-Val-Pro-Phe-Tyr(t-Bu)-Leu-Pro-[…]-Gly-OH was prepared using standard Fmoc chemistry on 2-chlorotrityl chloride resin (Int. J. Pept. Prot. Res. 38:555-561, 1991). Cleavage from the resin was performed using 20% acetic acid in dichloromehane (DCM), which left the side chain still blocked. The C-terminal protected carboxylic acid was coupled to 4′-(aminomethy)fluorescein (Molecular Probes, A-1351; Eugene, Oreg.) using excess diisopropylcarbodiimide (DIC) in dimethylformamide (DMF) at room temperature and was purified by silica gel chromatography (10% methanol in DCM). The N-terminal Fmoc protecting group was removed using piperidine (20%) in DMF, and purified by silica gel chromatography (20% methanol in DCM, 0.5% HOAc). Finally, the t-butyl side chain protective groups were removed using 95% trifluoroacetic acid containing 2.5% water and 2.5% triisopropyl silane.
(§2) For all assays, the fluorescence and fluorescence-polarization was evaluated using a Tecan Polarion instrument with the excitation filter set at 485 nm and the emission filter set at 535 nm. For each assay, the concentration of the target protein was first establish by titration of the selected protein in order to produce a linear dose-response signal when incubated alone in the presence of the fluorescent probe. Upon establishing these conditions, the compounds potency (IC50) and selectivity, was assessed in the presence of a fix defined amount of target protein and fluorescent probe and a 10 point serial dilution of the selected compounds. For each IC50 curve, the assays were run as followed: 25 ul/well of diluted compound in 50 mM MES buffer pH 6.5 were added into a black 96 well plate then 25 ul/well of bovine serum albumin (BSA) at 0.5 mg/ml in 50 mM MES pH 6.5. Auto-fluorescence for each compound was first assessed by performing a reading of the compound/BSA solution alone. Then 25 ul of the fluorescein probe diluted into 50 mM MES containing 0.05 mg/ml BSA were added and a reading to detect quenching of fluorescein signal done. Finally 25 ul/well of the target or control protein (GST-BIRs) diluted at the appropriate concentration in 50 mM MES containing 0.05 mg/ml BSA were added and the fluorescence polarization evaluated.
(§3) For each assay the relative polarization-fluorescence units were plotted against the final concentrations of compound and the IC50 calculated using the Grad pad prism software and/or Cambridge soft. The ki value were derived from the calculated IC50 value as described above and according to the equation described in Nikolovska-Coleska, Z. (2004) Anal Biochem 332, 261-273.

[2] = molecular target: T2, XIAP bir3 domain (GST-XIAP BIR3RING) (Homo sapiens, UniProt P98170); assay: Fluorescence polarization-based competition assay, XIAP; assay type: binding; conditions: Ki calculated from displacement of fluorescent probe; read-out: Fluorescent polarization (FP) assay Xiap
T2 construct: made in house; host or cells: E. coli DH5-alpha
Experimental: GST-XIAP BIR3RING: XIAP coding sequence amino acids 246-497 cloned into PGEX2T1 via BamH1 and AVA I. The plasmid was transformed into E. coli DH5a for use in protein expression and purification.
as §1, §2, §3

[3] = molecular target: T3, cIAP-1 bir3 domain (GST-HIAP2 (cIAP-1) BIR3) (Homo sapiens, UniProt Q13490); assay: Fluorescence polarization-based competition assay, cIAP-1; assay type: binding; conditions: Ki calculated from displacement of fluorescent probe; read-out: Fluorescent polarization (FP) assay cIAP-1
T3 construct: made in house; host or cells: E. coli DH5-alpha
Experimental: GST-HIAP2 (cIAP-1) BIR3: HIAP2 coding sequence from amino acids 251-363 cloned into PGex4T3 via BamH1 and XhoI. The plasmid was transformed into E. coli DH5α for use in protein expression and purification.
as §1, §2, §3

[4] = tested on: SKOV-3 (ovarian) cancer cells; assay: Cell viability (MTT) assay, SKOV3 cells; conditions: 72 hours, MTT based assay; compounds added either alone or in presence of 1-3 ng/ml of TRAIL
Experimental: (§4) MDA-MD-231 (breast) and SKOV-3 (ovarian) cancer cells were cultured in RPMI1640 media supplemented with 10% FBS and 100 units/mL of Penicillin and Steptomycin.
(§5) Viability assays were done on a number of cells including MDA-MB-231, SKOV-3, H460, PC3, HCT-116, and SW480 cells. Cells were seeded in 96 well plates at a respective density of 5000 and 2000 cells per well and incubated at 37° C. in presence of 5% CO2 for 24 hours. Selected compounds were diluted into the media at various concentration ranging from 0.01 uM up to 100 uM. Diluted compounds were added onto the MDA-MB-231 cells. For the MDA-MB-231 SKOV3, H460, PC3, HCT-116, and SW480 cells, the compounds were added either alone or in presence of 1-3 ng/ml of TRAIL. After 72 hours cellular viability was evaluated by MTT based assays.

[5] = molecular target: T4, XIAP L-Bir2-Bir3 (GST-XIAP Linker Bir2Bir3RING fusion protein) (Homo sapiens, UniProt P98170); assay: Caspase de-repression assay using cellular extracts (apoptosome), L-Bir2-Bir3 XIAP; assay type: biochemical; conditions: 293 cell S100 extract; effective concentration to achieve 50% of activation
T4 construct: made in house; host or cells: E. coli DH5-alpha
Experimental: GST-linker BIR2BIR3Ring: XIAP coding sequence from amino acids 93-497 cloned into PGex4T1 via BamH1 and XhoI. Amino acids 93-497 were amplified from full length XIAP in pGex4t3, using the primers: […] and GCTGCATGTGTGTCAGAGG, using standard PCR conditions. The PCR fragment was TA cloned into pCR-2.1 (invitrogen). Linker BIR2BIR3Ring was subcloned into pGex4T1 by BamHI/XhoI digestion. The plasmid was transformed into E. coli DH5α for use in protein expression and purification. […]
100 ug of 293 cell S100 extract and 0.25 uM-2 uM of GST-XIAP fusion protein (XIAP-Bir3RING, XIAP-Linker Bir2Bir3RING, or full-length XIAP) were co-incubated with serial dilutions of compound (40 uM-5 pM). Caspases present in the extracts were activated by adding 1 mM dATP, 0.1 mM ALLN, 133 ug Cytochrome C (final concentrations), and incubating at 37° C. for 25 minutes. All reactions and dilutions used S100 buffer (50 mM Pipes pH 7.0, 50 mM KCl, 0.5 mM EGTA pH 8.0, 2 mM MgCl2 supplemented with 1/1000 dilutions of 2 mg/ml Cytochalisin B, 2 mg/ml Chymotstatin, Leupeptin, Pepstatin, Antipain, 0.1M PMSF, 1M DTT). Final reaction volume was 30 ul. Caspase-3 activity was measured by overlaying 30 ul of a 0.4 mM DEVD-AMC solution. released AMC cleavage was measured in a TECAN spectrophotometer at 360 nm excitation and 444 nm emission, on a kinetic cycle of 1 hour with readings taken every 5 minutes. Caspase activity was calculated as Vo of AMC fluorescence/sec. Caspase de-repression by our compounds was compared to fully activated extract and activated extract repressed by the presence of XIAP fusion protein.

[6] = tested on: MDA-MB-231 (breast) cancer cells; assay: Cell viability (MTT) assay, MDA cells; conditions: Homo sapiens, MTT based assay
Experimental: as §4, §5

HCT-116 tumors = assay: Combination anti-cancer therapy in vivo (HCT-116 tumors, with mitomycin-C); conditions: HCT-116 tumors in female nude mice
Experimental: Female nude mice received […] HCT-116 subdermally on the right flank. On day 26, when tumors were […], animals were assigned to groups using a balanced design based on tumor size. At that time mitomycin-C and Compound 23 treatment was initated. Mitomycin-C was administered ip at 1 mg/kg, Monday through Friday for two weeks. Compound 23 was given iv at 1 or 5 mg/kg five times per week for the duration of the experiment. Tumor measurements were taken twice weekly.

T1 sequence (Q13489 236-349): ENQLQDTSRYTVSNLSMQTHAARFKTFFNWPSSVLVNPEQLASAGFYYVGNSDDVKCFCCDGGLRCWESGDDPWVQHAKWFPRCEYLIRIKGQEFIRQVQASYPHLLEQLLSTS
T3 sequence (Q13490 251-363): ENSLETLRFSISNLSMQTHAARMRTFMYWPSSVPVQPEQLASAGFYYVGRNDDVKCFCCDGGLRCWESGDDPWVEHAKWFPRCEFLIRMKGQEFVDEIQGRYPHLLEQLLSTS
T4 sequence (P98170 93-497): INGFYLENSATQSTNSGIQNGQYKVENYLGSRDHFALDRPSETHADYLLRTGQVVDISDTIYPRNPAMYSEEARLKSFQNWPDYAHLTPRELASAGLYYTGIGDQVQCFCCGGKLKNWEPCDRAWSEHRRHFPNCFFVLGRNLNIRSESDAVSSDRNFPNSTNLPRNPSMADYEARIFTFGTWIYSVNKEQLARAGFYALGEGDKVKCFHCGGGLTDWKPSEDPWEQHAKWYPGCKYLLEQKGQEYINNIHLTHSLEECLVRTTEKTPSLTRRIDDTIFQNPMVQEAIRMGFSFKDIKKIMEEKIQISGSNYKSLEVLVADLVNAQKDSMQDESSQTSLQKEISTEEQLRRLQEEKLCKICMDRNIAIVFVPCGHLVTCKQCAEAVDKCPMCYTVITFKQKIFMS
T2 sequence (P98170 246-497): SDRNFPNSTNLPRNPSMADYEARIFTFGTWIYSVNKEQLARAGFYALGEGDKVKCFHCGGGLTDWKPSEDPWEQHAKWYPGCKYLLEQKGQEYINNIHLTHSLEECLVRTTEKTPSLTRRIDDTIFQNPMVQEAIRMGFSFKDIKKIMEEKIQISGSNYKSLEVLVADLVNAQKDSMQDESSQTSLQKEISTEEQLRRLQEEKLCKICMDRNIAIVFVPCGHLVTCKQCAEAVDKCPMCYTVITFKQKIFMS

Ki [1] [nM] | Ki [2] [nM] | Ki [3] [nM] | EC50 [4] [nM] | IC50 [5] [nM] | EC50 ([6]; MDA-MB-231, 72 h) [nM] | Compound | EC50 ([6]; MDA-MB-231, 72 hours) [nM] | anti-tumor effect at 5 mg/kg compared to the 1 mg/kg dose (HCT-116 tumors; 5 mg/kg iv in combination with mitomycin-C ip 1 mg/kg) | anti-tumor effect in combination with mitomycin-C (HCT-116 tumors; iv at 1 or 5 mg/kg five times per week, mitomycin-C ip 1 mg/kg)
≥ 100 | ≤ 100 | ≥ 100 | < 100 | ≤ 100 | < 100 | CN[C@@H](C)C(=O)N[C@H](C(=O)N1CCC[C@H]1CN(CCc1ccccc1)C(=O)C(F)(F)F)[C@@H](C)OCC#CC#CCO[C@H](C)[C@H](NC(=O)[C@H](C)NC)C(=O)N1CCC[C@H]1CN(CCc1ccccc1)C(=O)C(F)(F)F [Compound 1] | – | – | –
≤ 100 | ≤ 100 | ≤ 5 | < 100 | ≤ 500 | < 100 | CN[C@@H](C)C(=O)N[C@H](C(=O)N1CCC[C@H]1C(=O)N[C@@H]1CCCc2ccccc21)[C@@H](C)OCC#CC#CCO[C@H](C)[C@H](NC(=O)[C@H](C)NC)C(=O)N1CCC[C@H]1C(=O)N[C@@H]1CCCc2ccccc21 [Compound 23] | – | superior anti-tumor effects | increasing anti-tumor effect in combination with mitomycin-C with increasing dose

Compound | Ki [1] [nM] | Ki [2] [nM] | Ki [3] [nM] | EC50 [4] [nM] | IC50 [5] [nM] | EC50 ([6]; MDA-MB-231, 72 h) [nM] | EC50 ([6]; MDA-MB-231, 72 hours) [nM] | anti-tumor effect at 5 mg/kg compared to the 1 mg/kg dose (HCT-116 tumors; 5 mg/kg iv in combination with mitomycin-C ip 1 mg/kg) | anti-tumor effect in combination with mitomycin-C (HCT-116 tumors; iv at 1 or 5 mg/kg five times per week, mitomycin-C ip 1 mg/kg)
CN[C@@H](C)C(=O)N[C@@H](COCc1ccc(-c2ccc(COC[C@H](NC(=O)[C@H](C)NC)C(=O)N3CCC[C@H]3CN(CCc3ccccc3)C(=O)C(F)(F)F)cc2)cc1)C(=O)N1CCC[C@H]1CN(CCc1ccccc1)C(=O)C(F)(F)F [Compound 12] | ≤ 5 | ≥ 100 | ≤ 100 | – | ≥ 1000 | – | < 100 | – | –
